Laboratory results reported in patent US20100041089A1, “IMPROVED METHOD FOR DETECTING CHEMICAL […]” (priority 2006, published 2010).

Tested on: yeast genes (expressed mRNA)
Experiment: DNA chip measurement of expressed mRNA of yeast genes after culture with a toxic chemical substance
Format: cell-based, Saccharomyces cerevisiae S288C
Procedure, shortened: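 Expression is given as treated/untreated fluorescence ratio on a whole-genome yeast DNA chip, a ratio of two or more being significant. Log-phase S288C cultures in YPD at 25 °C received the chemical for 2 h at a dose that slows growth without killing. mRNA was reverse-transcribed with Cy3- or Cy5-dUTP.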

COc1cc(CNC(=O)CCCCC=CC(C)C)ccc1O [(12), 8-Methyl-N-vanillyl-6-nonenamide]
The level of expressed mRNA in the presence of chemical substance/The level of expressed mRNA in the absence of chemical substance (yeast gene YNL092W, cultured two hours with substance): 1.1
The level of expressed mRNA in the presence of chemical substance/The level of expressed mRNA in the absence of chemical substance (yeast gene YNL104C, metabolism protein genes): 1.1
The level of expressed mRNA in the presence of chemical substance/The level of expressed mRNA in the absence of chemical substance (yeast gene YNL115C, cultured two hours with substance): 0.8
The level of expressed mRNA in the presence of chemical substance/The level of expressed mRNA in the absence of chemical substance (yeast gene YNL156C, cultured two hours with substance): 0.9
The level of expressed mRNA in the presence of chemical substance/The level of expressed mRNA in the absence of chemical substance (yeast gene YNL169C): 1.0
The level of expressed mRNA in the presence of chemical substance/The level of expressed mRNA in the absence of chemical substance (yeast gene YNL190W, cultured two hours with substance): 1.0
The level of expressed mRNA in the presence of chemical substance/The level of expressed mRNA in the absence of chemical substance (yeast gene YNL208W, cultured two hours with substance): 0.8
The level of expressed mRNA in the presence of chemical substance/The level of expressed mRNA in the absence of chemical substance (yeast gene YNL211C, cultured two hours with substance): 3.2
The level of expressed mRNA in the presence of chemical substance/The level of expressed mRNA in the absence of chemical substance (yeast gene YNL234W, cultured two hours with substance): 1.1
The level of expressed mRNA in the presence of chemical substance/The level of expressed mRNA in the absence of chemical substance (yeast gene YNL241C (stress protein genes)): 2.0
The level of expressed mRNA in the presence of chemical substance/The level of expressed mRNA in the absence of chemical substance (yeast gene YNL281W, cultured two hours with substance): 0.7
The level of expressed mRNA in the presence of chemical substance/The level of expressed mRNA in the absence of chemical substance (yeast gene YNL300W, cultured two hours with substance): 0.8
The level of expressed mRNA in the presence of chemical substance/The level of expressed mRNA in the absence of chemical substance (yeast gene YNL305C, cultured two hours with substance): 1.1
The level of expressed mRNA in the presence of chemical substance/The level of expressed mRNA in the absence of chemical substance (yeast gene YNL331C): 0.9
The level of expressed mRNA in the presence of chemical substance/The level of expressed mRNA in the absence of chemical substance (yeast gene YNR033W, metabolism protein genes): 1.1
The level of expressed mRNA in the presence of chemical substance/The level of expressed mRNA in the absence of chemical substance (yeast gene YNR064C, cultured two hours with substance): 0.7
The level of expressed mRNA in the presence of chemical substance/The level of expressed mRNA in the absence of chemical substance (yeast gene YNR068C, cultured two hours with substance): 1.3
The level of expressed mRNA in the presence of chemical substance/The level of expressed mRNA in the absence of chemical substance (yeast gene YOL031C, cultured two hours with substance): 2.1
The level of expressed mRNA in the presence of chemical substance/The level of expressed mRNA in the absence of chemical substance (yeast gene YOL032W, cultured two hours with substance): 1.0
The level of expressed mRNA in the presence of chemical substance/The level of expressed mRNA in the absence of chemical substance (yeast gene YOL036W, cultured two hours with substance): 1.0
The level of expressed mRNA in the presence of chemical substance/The level of expressed mRNA in the absence of chemical substance (yeast gene YOL047C, cultured two hours with substance): 0.8
The level of expressed mRNA in the presence of chemical substance/The level of expressed mRNA in the absence of chemical substance (yeast gene YOL058W): 1.3
The level of expressed mRNA in the presence of chemical substance/The level of expressed mRNA in the absence of chemical substance (yeast gene YOL064C (stress protein genes)): 0.9
The level of expressed mRNA in the presence of chemical substance/The level of expressed mRNA in the absence of chemical substance (yeast gene YOL071W, cultured two hours with substance): 1.0
The level of expressed mRNA in the presence of chemical substance/The level of expressed mRNA in the absence of chemical substance (yeast gene YOL082W, cultured two hours with substance): 1.0
The level of expressed mRNA in the presence of chemical substance/The level of expressed mRNA in the absence of chemical substance (yeast gene YOL083W, cultured two hours with substance): 1.2
The level of expressed mRNA in the presence of chemical substance/The level of expressed mRNA in the absence of chemical substance (yeast gene YOL117W, cultured two hours with substance): 0.9
The level of expressed mRNA in the presence of chemical substance/The level of expressed mRNA in the absence of chemical substance (yeast gene YOL126C, metabolism protein genes): 1.1
The level of expressed mRNA in the presence of chemical substance/The level of expressed mRNA in the absence of chemical substance (yeast gene YOL131W, cultured two hours with substance): 0.9
The level of expressed mRNA in the presence of chemical substance/The level of expressed mRNA in the absence of chemical substance (yeast gene YOL150C, cultured two hours with substance): 2.9
The level of expressed mRNA in the presence of chemical substance/The level of expressed mRNA in the absence of chemical substance (yeast gene YOL162W, cultured two hours with substance): 1.4
The level of expressed mRNA in the presence of chemical substance/The level of expressed mRNA in the absence of chemical substance (yeast gene YOR019W, cultured two hours with substance): 1.0
The level of expressed mRNA in the presence of chemical substance/The level of expressed mRNA in the absence of chemical substance (yeast gene YOR049C, cultured two hours with substance): 6.7
The level of expressed mRNA in the presence of chemical substance/The level of expressed mRNA in the absence of chemical substance (yeast gene YOR099W, metabolism protein genes): 1.1
The level of expressed mRNA in the presence of chemical substance/The level of expressed mRNA in the absence of chemical substance (yeast gene YOR130C, metabolism protein genes): 0.9
The level of expressed mRNA in the presence of chemical substance/The level of expressed mRNA in the absence of chemical substance (yeast gene YOR197W, cultured two hours with substance): 1.0
The level of expressed mRNA in the presence of chemical substance/The level of expressed mRNA in the absence of chemical substance (yeast gene YOR248W, cultured two hours with substance): 0.5
The level of expressed mRNA in the presence of chemical substance/The level of expressed mRNA in the absence of chemical substance (yeast gene YOR336W, metabolism protein genes): 1.0
The level of expressed mRNA in the presence of chemical substance/The level of expressed mRNA in the absence of chemical substance (yeast gene YOR382W, cultured two hours with substance): 2.8
The level of expressed mRNA in the presence of chemical substance/The level of expressed mRNA in the absence of chemical substance (yeast gene YPL017C, metabolism protein genes): 1.0
The level of expressed mRNA in the presence of chemical substance/The level of expressed mRNA in the absence of chemical substance (yeast gene YPL052W, cultured two hours with substance): 1.1
The level of expressed mRNA in the presence of chemical substance/The level of expressed mRNA in the absence of chemical substance (yeast gene YPL087W, cultured two hours with substance): 1.8
The level of expressed mRNA in the presence of chemical substance/The level of expressed mRNA in the absence of chemical substance (yeast gene YPL194W (stress protein genes)): 0.9
The level of expressed mRNA in the presence of chemical substance/The level of expressed mRNA in the absence of chemical substance (yeast gene YPL196W, cultured two hours with substance): 0.9
The level of expressed mRNA in the presence of chemical substance/The level of expressed mRNA in the absence of chemical substance (yeast gene YPL206C, cultured two hours with substance): 0.8
The level of expressed mRNA in the presence of chemical substance/The level of expressed mRNA in the absence of chemical substance (yeast gene YPL222W, cultured two hours with substance): 1.3
The level of expressed mRNA in the presence of chemical substance/The level of expressed mRNA in the absence of chemical substance (yeast gene YPR023C, cultured two hours with substance): 0.9
The level of expressed mRNA in the presence of chemical substance/The level of expressed mRNA in the absence of chemical substance (yeast gene YPR079W, cultured two hours with substance): 1.0
The level of expressed mRNA in the presence of chemical substance/The level of expressed mRNA in the absence of chemical substance (yeast gene YPR151C, cultured two hours with substance): 0.9
The level of expressed mRNA in the presence of chemical substance/The level of expressed mRNA in the absence of chemical substance (yeast gene YPR167C): 1.3
